Reference: patent publication US11000033B2, “Ketone or oxime compound, and herbicide” (NISSAN CHEMICAL CORPORATION, priority 2014, dated 2021)

Legend:
Type in all cases: in vivo
[1] = system: Echinochloa oryzacola Vasing.; assay: Test Example 1: herbicidal activity, application before weed generation in submerged conditions (symbol A); conditions: application herbicide amount 320 g/ha
Summary of the method: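 Pre-emergence, paddy conditions: emulsifiable formulation diluted in water, dosed onto floodwater (4 cm depth) on sowing day. Alluvial soil; weeds sown mixed; rice transplanted at 2.5-leaf stage. Greenhouse 25–30 °C, 3 wk. Score 0–5 (5 = ≥90% kill, 0 = ≤5%).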

[2] = system: transplanted rice plant; assay: Test Example 1: effect on crop, application before weed generation in submerged conditions (symbol a); conditions: application herbicide amount 320 g/ha
Summary of the method: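 Rice at 2.5 leaf stage transplanted into submerged soil (4 cm depth) sown with three weed species; herbicide applied before weed emergence.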

[3] = system: Scirpus juncoides; assay: Test Example 2: herbicidal activity, application during weed generation in submerged conditions (symbol B); conditions: Table 23; application herbicide amount 320 g/ha; grade 0-5 by criteria of Test Example 1
Summary of the method: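 Compound was applied as a water-diluted emulsion into the standing water of flooded pots (4 cm) once co-sown weeds reached one to two leaves. Greenhouse temperature was 25° C. to 30° C., soil was alluvial, and each species was rated visually after 3 weeks.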

[4] = system: Echinochloa crus-galli var. crus-galli; assay: Test Example 3: herbicidal effect by foliage application, Wagner pot (symbol H); conditions: application herbicide amount 320 g/ha
Summary of the method: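 In a shallow-flooded alluvial soil system held at 25–30 °C, plants including rice grew for 14 days and were then sprayed over the foliage with emulsion diluted to a fixed herbicide amount. Visual rating followed at 3 weeks.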

[5] = system: directly sowed rice plant; assay: Test Example 3: effect on crop by foliage application, Wagner pot (symbol b); conditions: application herbicide amount 320 g/ha
Summary of the method: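 Alluvial soil in a 1/10000-are Wagner pot was flooded to a water depth of 0.1–0.5 cm. Echinochloa crus-galli var. crus-galli, Leptochloa chinensis, Cyperus difformis and rice were sown into it and grown in a greenhouse at 25–30 °C.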

[6] = system: wheat; assay: Test Example 4: effect on crop by soil treatment (symbol e); conditions: 320 g/ha
Summary of the method: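 Diluvial soil (sterilized) in boxes; seeds placed spot-wise alongside weed species; ~1.5 cm covering soil. Greenhouse, 25–30° C.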

[7] = system: Alopecurus myosuroides; assay: Test Example 5: herbicidal effect by foliage application, plastic box (symbol J); conditions: 320 g/ha, 3 weeks after application
Summary of the method: (§1)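 Greenhouse foliar test: seedlings at 14 days, grown 25° C. to 30° C. in sterilized diluvial soil; compound applied as an aqueous dilution of an emulsion; response read 3 weeks after spraying.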

[8] = system: Amaranthus retroflexus; assay: Test Example 5: herbicidal effect by foliage application, plastic box (symbol N); conditions: 320 g/ha, 3 weeks after application
Summary of the method: as §1

[9] = system: Stellaria media; assay: Test Example 5: herbicidal effect by foliage application, plastic box (symbol P); conditions: 320 g/ha, 3 weeks after application
Summary of the method: as §1

[10] = system: corn; assay: Test Example 5: effect on crop by foliage application, plastic box (symbol c); conditions: 320 g/ha, 3 weeks after application
Summary of the method: (§2)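 Foliage-application test plants come from spot sowing in sterilized diluvial soil under a soil layer of about 1.5 cm, grown at 25° C. to 30° C. in a greenhouse.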

[11] = system: rice plant; assay: Test Example 5: effect on crop by foliage application, plastic box (symbol b); conditions: 320 g/ha, 3 weeks after application
Summary of the method: as §2

[12] = system: wheat; assay: Test Example 5: effect on crop by foliage application, plastic box (symbol e); conditions: 320 g/ha, 3 weeks after application
Summary of the method: as §2

[13] = system: beet; assay: Test Example 5: effect on crop by foliage application, plastic box (symbol f); conditions: 320 g/ha, 3 weeks after application
Summary of the method: as §2

Compound	Herbicidal effect grade, A: Echinochloa oryzacola Vasing. [1]	Effect grade on crop, a: transplanted rice plant [2]	Herbicidal effect grade, B: Scirpus juncoides [3]	herbicidal effect on H (Echinochloa crus-galli var. crus-galli), grade 0-5 [4]	effect on crop b (directly sowed rice plant), grade 0-5 [5]	e: wheat, effect grade on crop [6]	J: Alopecurus myosuroides, herbicidal effect (criteria 0-5) [7]	N: Amaranthus retroflexus, herbicidal effect (criteria 0-5) [8]	P: Stellaria media, herbicidal effect (criteria 0-5) [9]	c: corn, effect on crop (criteria 0-5) [10]	b: directly sowed rice plant, effect on crop (criteria 0-5) [11]	e: wheat, effect on crop (criteria 0-5) [12]	f: beet, effect on crop (criteria 0-5) [13]
CON=C(CC1CC(O)=C(c2c(C)cc(C)cc2C)C1=O)C1CCCC1 (centres unmarked) [1-078]	5 (Herbicidal ratio of 90% or more (almost completely withered))	5 (Herbicidal ratio of 90% or more (almost completely withered))	0 (Herbicidal ratio of 5% or lower (almost no effect))	5 (Herbicidal ratio of 90% or more (almost completely withered))	5 (Herbicidal ratio of 90% or more (almost completely withered))	0 (Herbicidal ratio of 5% or lower (almost no effect))	4 (Herbicidal ratio of 70% or higher and lower than 90%)	0 (Herbicidal ratio of 5% or lower (almost no effect))	0 (Herbicidal ratio of 5% or lower (almost no effect))	3 (Herbicidal ratio of 40% or higher and lower than 70%)	5 (Herbicidal ratio of 90% or more (almost completely withered))	0 (Herbicidal ratio of 5% or lower (almost no effect))	0 (Herbicidal ratio of 5% or lower (almost no effect))
CON=C(C)CC1CC(OC(=O)COc2ccc(C=O)cc2)=C(c2c(C)cc(C)cc2C)C1=O (centres unmarked) [1-079]	5 (Herbicidal ratio of 90% or more (almost completely withered))	5 (Herbicidal ratio of 90% or more (almost completely withered))	4 (Herbicidal ratio of 70% or higher and lower than 90%)	5 (Herbicidal ratio of 90% or more (almost completely withered))	5 (Herbicidal ratio of 90% or more (almost completely withered))	4 (Herbicidal ratio of 70% or higher and lower than 90%)	5 (Herbicidal ratio of 90% or more (almost completely withered))	0 (Herbicidal ratio of 5% or lower (almost no effect))	1 (Herbicidal ratio of 5% or higher and lower than 20%)	5 (Herbicidal ratio of 90% or more (almost completely withered))	5 (Herbicidal ratio of 90% or more (almost completely withered))	4 (Herbicidal ratio of 70% or higher and lower than 90%)	0 (Herbicidal ratio of 5% or lower (almost no effect))
CON=C(C)CC1CC(OC(=O)COc2ccc(C(C)=O)cc2)=C(c2c(C)cc(C)cc2C)C1=O (centres unmarked) [1-080]	5 (Herbicidal ratio of 90% or more (almost completely withered))	5 (Herbicidal ratio of 90% or more (almost completely withered))	4 (Herbicidal ratio of 70% or higher and lower than 90%)	5 (Herbicidal ratio of 90% or more (almost completely withered))	5 (Herbicidal ratio of 90% or more (almost completely withered))	4 (Herbicidal ratio of 70% or higher and lower than 90%)	5 (Herbicidal ratio of 90% or more (almost completely withered))	0 (Herbicidal ratio of 5% or lower (almost no effect))	0 (Herbicidal ratio of 5% or lower (almost no effect))	5 (Herbicidal ratio of 90% or more (almost completely withered))	5 (Herbicidal ratio of 90% or more (almost completely withered))	4 (Herbicidal ratio of 70% or higher and lower than 90%)	0 (Herbicidal ratio of 5% or lower (almost no effect))
CON=C(C)CC1CC(OC(=O)COc2ccc(Br)cc2)=C(c2c(C)cc(C)cc2C)C1=O (centres unmarked) [1-081]	5 (Herbicidal ratio of 90% or more (almost completely withered))	5 (Herbicidal ratio of 90% or more (almost completely withered))	4 (Herbicidal ratio of 70% or higher and lower than 90%)	5 (Herbicidal ratio of 90% or more (almost completely withered))	5 (Herbicidal ratio of 90% or more (almost completely withered))	4 (Herbicidal ratio of 70% or higher and lower than 90%)	5 (Herbicidal ratio of 90% or more (almost completely withered))	5 (Herbicidal ratio of 90% or more (almost completely withered))	0 (Herbicidal ratio of 5% or lower (almost no effect))	5 (Herbicidal ratio of 90% or more (almost completely withered))	5 (Herbicidal ratio of 90% or more (almost completely withered))	4 (Herbicidal ratio of 70% or higher and lower than 90%)	0 (Herbicidal ratio of 5% or lower (almost no effect))
CON=C(C)CC1CC(OC(=O)COc2ccc(I)cc2)=C(c2c(C)cc(C)cc2C)C1=O (centres unmarked) [1-082]	5 (Herbicidal ratio of 90% or more (almost completely withered))	5 (Herbicidal ratio of 90% or more (almost completely withered))	5 (Herbicidal ratio of 90% or more (almost completely withered))	5 (Herbicidal ratio of 90% or more (almost completely withered))	5 (Herbicidal ratio of 90% or more (almost completely withered))	3 (Herbicidal ratio of 40% or higher and lower than 70%)	5 (Herbicidal ratio of 90% or more (almost completely withered))	0 (Herbicidal ratio of 5% or lower (almost no effect))	0 (Herbicidal ratio of 5% or lower (almost no effect))	5 (Herbicidal ratio of 90% or more (almost completely withered))	5 (Herbicidal ratio of 90% or more (almost completely withered))	5 (Herbicidal ratio of 90% or more (almost completely withered))	0 (Herbicidal ratio of 5% or lower (almost no effect))
